According to US11530235B2, “Compounds and methods used in assessing mono-PARP activity” (Oregon Health & Science University, priority 2015, dated 2022):

Experiments:
WT-PARP11 = target: T1, WT-PARP11 (Homo sapiens, UniProt Q9NR21); test: Lysate labeling, HEK 293T cells expressing WT-PARP11; details: HEK 293T lysate
T1 sequence (Q9NR21 1-331 isoform Q9NR21-1): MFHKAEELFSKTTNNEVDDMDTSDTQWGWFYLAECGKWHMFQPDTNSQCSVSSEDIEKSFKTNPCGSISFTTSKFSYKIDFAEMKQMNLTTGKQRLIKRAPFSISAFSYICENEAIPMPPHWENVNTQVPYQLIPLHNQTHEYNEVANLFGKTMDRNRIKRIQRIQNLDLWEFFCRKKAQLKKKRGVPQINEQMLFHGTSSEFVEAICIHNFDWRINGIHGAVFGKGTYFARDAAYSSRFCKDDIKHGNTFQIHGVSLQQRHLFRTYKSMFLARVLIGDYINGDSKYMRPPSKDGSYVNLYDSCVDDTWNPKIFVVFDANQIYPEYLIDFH

WT-PARP15cat = target: T2, WT-PARP15cat (Homo sapiens, UniProt Q460N3); test: In vitro SRPK2 MARylation with WT-PARP15cat; assay type: biochemical
T2 sequence (Q460N3 482-678 limits assumed): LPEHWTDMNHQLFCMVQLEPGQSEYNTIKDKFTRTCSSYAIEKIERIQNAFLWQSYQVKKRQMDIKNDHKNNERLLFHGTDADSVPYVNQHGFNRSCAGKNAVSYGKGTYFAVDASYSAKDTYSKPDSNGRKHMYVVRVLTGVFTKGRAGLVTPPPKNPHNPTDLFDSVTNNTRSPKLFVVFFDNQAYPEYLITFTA

GFP-WT-PARP10 = target: T3, GFP-WT-PARP10 (Homo sapiens, UniProt Q53GL7); test: Lysate labeling, HEK 293T cells expressing WT-PARP10; details: HEK 293T lysate, WT-PARP10, 100 μM, click conjugation with biotin-azide
T3 sequence (Q53GL7 1-1025): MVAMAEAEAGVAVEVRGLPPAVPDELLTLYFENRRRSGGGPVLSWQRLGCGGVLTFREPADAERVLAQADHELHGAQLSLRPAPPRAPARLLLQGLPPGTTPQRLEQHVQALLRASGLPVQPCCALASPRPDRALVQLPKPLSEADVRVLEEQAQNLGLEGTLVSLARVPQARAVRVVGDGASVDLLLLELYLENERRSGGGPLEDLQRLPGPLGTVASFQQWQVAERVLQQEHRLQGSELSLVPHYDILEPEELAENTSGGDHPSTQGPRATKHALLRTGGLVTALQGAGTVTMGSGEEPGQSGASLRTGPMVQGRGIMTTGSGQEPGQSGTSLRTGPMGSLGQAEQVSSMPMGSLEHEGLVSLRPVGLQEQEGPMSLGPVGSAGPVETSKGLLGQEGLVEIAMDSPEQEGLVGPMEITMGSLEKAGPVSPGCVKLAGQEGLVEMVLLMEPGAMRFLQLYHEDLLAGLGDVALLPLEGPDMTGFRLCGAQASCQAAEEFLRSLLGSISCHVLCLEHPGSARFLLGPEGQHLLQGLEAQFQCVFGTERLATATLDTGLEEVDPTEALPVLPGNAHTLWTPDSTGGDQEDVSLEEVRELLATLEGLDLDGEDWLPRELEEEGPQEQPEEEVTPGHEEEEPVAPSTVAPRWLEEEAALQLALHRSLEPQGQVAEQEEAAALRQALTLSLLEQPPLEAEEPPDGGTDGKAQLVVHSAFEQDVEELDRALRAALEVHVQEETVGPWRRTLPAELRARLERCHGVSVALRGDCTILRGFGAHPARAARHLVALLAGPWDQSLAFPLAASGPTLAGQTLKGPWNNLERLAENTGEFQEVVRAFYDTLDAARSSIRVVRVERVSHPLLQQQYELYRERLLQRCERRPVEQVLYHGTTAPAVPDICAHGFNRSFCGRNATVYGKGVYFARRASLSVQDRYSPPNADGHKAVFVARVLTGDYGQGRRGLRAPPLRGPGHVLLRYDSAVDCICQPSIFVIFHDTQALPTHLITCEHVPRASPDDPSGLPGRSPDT

WT-PARP10cat = target: T4, WT-PARP10cat (Homo sapiens, UniProt Q53GL7); test: SRPK2 MARylation assay with WT-PARP10cat; details: 100 μM NAD+ analogue, 2 hours at 30° C., in-gel fluorescence
T4 sequence (Q53GL7 806-1025 limits assumed): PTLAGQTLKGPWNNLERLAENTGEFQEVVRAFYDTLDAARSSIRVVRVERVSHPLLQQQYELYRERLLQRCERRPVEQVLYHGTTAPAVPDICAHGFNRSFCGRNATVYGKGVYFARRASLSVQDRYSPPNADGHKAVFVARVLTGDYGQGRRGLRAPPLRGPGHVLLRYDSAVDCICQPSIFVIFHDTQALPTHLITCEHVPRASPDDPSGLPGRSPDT

L926A-PARP10cat = L926A-PARP10cat (Homo sapiens, UniProt Q53GL7, L926A); test: SRPK2 MARylation assay with L926A-PARP10cat; details: relative to WT-PARP10cat; 100 μM NAD+ analogue, in-gel fluorescence
Sequence of L926A-PARP10cat (Q53GL7 806-1025 L926A): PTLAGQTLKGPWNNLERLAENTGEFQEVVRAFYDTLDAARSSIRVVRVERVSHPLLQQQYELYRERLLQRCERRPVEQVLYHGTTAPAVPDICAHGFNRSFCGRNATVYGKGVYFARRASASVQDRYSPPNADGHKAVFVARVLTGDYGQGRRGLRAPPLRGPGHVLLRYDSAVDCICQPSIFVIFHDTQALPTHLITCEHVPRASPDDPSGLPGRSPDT

5-benzyl-6-a-NAD+ [5-Bn-6-a-NAD+]
labeling of lysate proteins (streptavidin-HRP) (WT-PARP11): Minimal background labeling | use as substrate by WT-PARP15cat to MARylate SRPK2 (WT-PARP15cat): did not use | labeling of lysate proteins (streptavidin-HRP) (GFP-WT-PARP10): low-level of background labeling

C#CCNc1ncnc2c1ncn2[C@@H]1O[C@H](COP(=O)(O)OP(=O)([O-])OC[C@H]2O[C@@H]([n+]3cccc(C(N)=O)c3)[C@H](O)[C@@H]2O)[C@@H](O)[C@H]1O [6-a-NAD+]
use as substrate to mediate SRPK2 MARylation by WT-PARP10cat (WT-PARP10cat): used as a substrate | use as substrate to mediate SRPK2 MARylation by L926A-PARP10cat (L926A-PARP10cat): to a lesser extent
